The record followed here is paper PMC6736866, “Electron cryomicroscopy observation of acyl carrier protein translocation in type I fungal fatty acid synthase” (Scientific Reports, 2019).

Assay [1] concerns the target T1, C. albicans type I fungal fatty acid synthase (FAS) (Candida albicans, UniProt P34731+P43098).
T1 construct: gene FAS1; endogenous alpha6beta6 complex, native purification by anti-FLAG; C-terminal 6xHIS-3xFLAG on FAS1 (beta) kept; holo-ACP
As to the kind of experiment: cryoEM structure; NADPH oxidation at […] nm. The assay is classed as biochemical. The conditions noted are these: ER domain near FMN (beta chain); KS-stalled state, 3 mM NADPH, cerulenin-inhibited; weak density, partial binding.

Assay [2] addresses T2, S. cerevisiae type I fungal fatty acid synthase (FAS) (Saccharomyces cerevisiae, UniProt P07149+P19097).
T2 construct: gene FAS1; endogenous alpha6beta6 heterododecamer, native purification by anti-FLAG; C-terminal 3xFLAG on FAS1 (beta) kept; beta 230 kDa, alpha 220 kDa; holo-ACP
The assay can be described thus: cryoEM structure; NADPH oxidation at […] nm. The class given is biochemical. The conditions noted are these: ER domain near FMN (beta chain); KS-stalled state, 3 mM NADPH, cerulenin-inhibited; weak density, partial binding.

The target in assay [3] is T2, S. cerevisiae type I fungal fatty acid synthase (FAS). The class given is biochemical.
The target is the same in assay [4]. The assay can be described thus: cryoEM structure. The assay is classed as binding. The conditions noted are these: ER domain (beta chain); Apo state and KS-stalled state.
Assay [5] concerns the target T1, C. albicans type I fungal fatty acid synthase (FAS). The assay can be described thus: cryoEM structure. The class given is binding. The conditions noted are these: ER domain (beta chain); Apo state and KS-stalled state.

T2 sequence (P07149 whole entry): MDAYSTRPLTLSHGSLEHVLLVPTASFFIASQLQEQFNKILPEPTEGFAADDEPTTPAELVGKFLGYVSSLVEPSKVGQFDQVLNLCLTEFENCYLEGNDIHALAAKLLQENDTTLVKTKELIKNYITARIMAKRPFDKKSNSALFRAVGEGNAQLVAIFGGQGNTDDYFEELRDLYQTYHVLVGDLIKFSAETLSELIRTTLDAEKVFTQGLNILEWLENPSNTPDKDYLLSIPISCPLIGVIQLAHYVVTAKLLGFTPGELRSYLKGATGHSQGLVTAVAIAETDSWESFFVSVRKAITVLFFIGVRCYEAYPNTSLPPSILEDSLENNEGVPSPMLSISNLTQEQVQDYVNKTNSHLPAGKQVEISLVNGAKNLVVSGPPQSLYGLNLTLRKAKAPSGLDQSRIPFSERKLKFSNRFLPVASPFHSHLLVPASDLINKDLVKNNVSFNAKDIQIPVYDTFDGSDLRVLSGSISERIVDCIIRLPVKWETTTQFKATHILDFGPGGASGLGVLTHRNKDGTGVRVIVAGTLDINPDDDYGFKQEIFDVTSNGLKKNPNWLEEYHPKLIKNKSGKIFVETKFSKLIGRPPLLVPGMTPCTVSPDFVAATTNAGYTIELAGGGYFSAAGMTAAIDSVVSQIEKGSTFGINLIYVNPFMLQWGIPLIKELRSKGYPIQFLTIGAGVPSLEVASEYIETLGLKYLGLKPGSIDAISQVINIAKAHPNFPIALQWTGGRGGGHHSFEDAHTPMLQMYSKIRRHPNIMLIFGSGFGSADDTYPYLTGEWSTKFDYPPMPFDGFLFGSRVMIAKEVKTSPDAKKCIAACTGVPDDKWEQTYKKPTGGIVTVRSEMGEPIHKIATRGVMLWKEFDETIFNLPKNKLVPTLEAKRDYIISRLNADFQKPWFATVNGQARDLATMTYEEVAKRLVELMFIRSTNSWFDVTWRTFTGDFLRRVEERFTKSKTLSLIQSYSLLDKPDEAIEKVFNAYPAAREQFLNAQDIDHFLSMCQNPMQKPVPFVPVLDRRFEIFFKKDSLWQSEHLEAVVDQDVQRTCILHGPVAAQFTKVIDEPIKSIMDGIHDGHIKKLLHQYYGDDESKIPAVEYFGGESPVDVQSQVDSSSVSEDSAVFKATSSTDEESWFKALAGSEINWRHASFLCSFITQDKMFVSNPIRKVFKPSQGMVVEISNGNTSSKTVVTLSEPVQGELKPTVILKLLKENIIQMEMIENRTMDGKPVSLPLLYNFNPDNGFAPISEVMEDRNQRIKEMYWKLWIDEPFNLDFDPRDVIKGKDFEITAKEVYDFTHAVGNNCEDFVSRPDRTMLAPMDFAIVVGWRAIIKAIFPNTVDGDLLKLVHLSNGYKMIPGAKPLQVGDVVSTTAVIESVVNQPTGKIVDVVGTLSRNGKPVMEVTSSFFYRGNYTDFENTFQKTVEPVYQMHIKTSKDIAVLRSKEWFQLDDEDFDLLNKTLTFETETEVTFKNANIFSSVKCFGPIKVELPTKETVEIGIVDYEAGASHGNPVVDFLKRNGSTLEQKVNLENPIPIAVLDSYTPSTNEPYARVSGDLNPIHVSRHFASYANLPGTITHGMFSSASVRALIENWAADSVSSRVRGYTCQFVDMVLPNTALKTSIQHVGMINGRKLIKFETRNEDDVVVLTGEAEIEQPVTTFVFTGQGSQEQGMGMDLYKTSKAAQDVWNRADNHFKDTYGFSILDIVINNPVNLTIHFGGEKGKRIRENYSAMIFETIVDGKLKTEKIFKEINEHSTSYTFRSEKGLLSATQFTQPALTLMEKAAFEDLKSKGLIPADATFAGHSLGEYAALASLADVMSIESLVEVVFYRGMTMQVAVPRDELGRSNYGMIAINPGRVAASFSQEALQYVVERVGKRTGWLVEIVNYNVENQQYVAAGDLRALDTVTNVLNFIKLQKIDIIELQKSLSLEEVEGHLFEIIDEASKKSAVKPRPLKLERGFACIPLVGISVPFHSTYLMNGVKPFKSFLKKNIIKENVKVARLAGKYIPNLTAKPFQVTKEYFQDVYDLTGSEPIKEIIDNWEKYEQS
T2 sequence (P19097 whole entry): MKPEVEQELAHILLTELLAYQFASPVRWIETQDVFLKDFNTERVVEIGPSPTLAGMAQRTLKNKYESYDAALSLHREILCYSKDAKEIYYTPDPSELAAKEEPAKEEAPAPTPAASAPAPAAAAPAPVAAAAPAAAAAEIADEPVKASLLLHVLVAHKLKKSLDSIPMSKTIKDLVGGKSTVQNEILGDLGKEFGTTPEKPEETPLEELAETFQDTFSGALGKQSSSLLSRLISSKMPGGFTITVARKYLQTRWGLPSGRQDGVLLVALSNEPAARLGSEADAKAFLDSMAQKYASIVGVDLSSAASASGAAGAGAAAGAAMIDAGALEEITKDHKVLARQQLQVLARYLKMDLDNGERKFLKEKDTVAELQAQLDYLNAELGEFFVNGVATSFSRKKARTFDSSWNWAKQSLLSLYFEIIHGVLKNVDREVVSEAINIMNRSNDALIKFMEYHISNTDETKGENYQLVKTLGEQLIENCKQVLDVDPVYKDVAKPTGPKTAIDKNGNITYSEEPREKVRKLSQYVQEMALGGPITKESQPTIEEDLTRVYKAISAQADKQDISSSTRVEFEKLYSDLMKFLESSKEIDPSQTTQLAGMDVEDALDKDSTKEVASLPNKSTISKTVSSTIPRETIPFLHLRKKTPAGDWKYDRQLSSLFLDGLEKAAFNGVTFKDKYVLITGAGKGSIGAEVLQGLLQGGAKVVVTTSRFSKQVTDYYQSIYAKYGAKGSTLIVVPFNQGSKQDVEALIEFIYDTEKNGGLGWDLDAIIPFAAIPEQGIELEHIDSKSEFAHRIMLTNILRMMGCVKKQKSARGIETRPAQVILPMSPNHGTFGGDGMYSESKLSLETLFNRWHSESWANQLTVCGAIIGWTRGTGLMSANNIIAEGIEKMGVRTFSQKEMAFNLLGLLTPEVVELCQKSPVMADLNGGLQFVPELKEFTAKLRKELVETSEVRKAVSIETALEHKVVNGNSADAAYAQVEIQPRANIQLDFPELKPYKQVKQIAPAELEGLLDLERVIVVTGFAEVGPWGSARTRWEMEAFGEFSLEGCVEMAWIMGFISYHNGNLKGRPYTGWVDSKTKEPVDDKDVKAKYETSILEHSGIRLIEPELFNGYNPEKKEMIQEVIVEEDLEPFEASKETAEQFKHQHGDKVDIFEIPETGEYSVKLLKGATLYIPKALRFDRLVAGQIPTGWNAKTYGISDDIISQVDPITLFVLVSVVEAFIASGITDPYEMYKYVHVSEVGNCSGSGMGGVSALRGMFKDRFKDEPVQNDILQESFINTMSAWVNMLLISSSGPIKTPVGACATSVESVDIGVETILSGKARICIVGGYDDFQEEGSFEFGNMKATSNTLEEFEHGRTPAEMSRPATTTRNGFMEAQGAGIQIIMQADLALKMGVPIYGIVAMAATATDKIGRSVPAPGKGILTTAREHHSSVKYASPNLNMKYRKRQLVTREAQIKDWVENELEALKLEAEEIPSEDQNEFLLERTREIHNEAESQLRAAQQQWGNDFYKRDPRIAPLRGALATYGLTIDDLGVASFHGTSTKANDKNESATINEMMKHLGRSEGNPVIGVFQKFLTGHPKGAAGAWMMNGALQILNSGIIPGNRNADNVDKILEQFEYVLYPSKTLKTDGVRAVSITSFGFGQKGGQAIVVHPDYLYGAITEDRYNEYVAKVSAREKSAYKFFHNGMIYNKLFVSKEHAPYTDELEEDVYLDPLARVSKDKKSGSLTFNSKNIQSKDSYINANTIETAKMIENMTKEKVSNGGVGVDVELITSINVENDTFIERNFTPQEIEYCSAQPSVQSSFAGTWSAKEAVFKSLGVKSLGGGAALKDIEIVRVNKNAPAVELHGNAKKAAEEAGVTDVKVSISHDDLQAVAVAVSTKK

`NC(=O)C1=CN([C@@H]2O[C@H](COP(=O)(O)OP(=O)(O)OC[C@H]3O[C@@H](n4cnc5c(N)ncnc54)[C@H](OP(=O)(O)O)[C@@H]3O)[C@@H](O)[C@H]2O)C=CC1` [NADPH]: the “cryoEM structure; NADPH oxidation at 340 nm” value in assay [1] was “Weak density can be seen for the NADPH in proximity of FMN”; in assay [2] it was “Weak NADPH density can also be seen in proximity of FMN”.

With `C/C=C/C/C=C/CCC(=O)[C@H]1O[C@H]1C(N)=O` [cerulenin], the not named result in assay [3] is on record as “are sensitive to cerulenin, a covalent KS-inhibitor”.

Take `Cc1cc2nc3c(=O)[nH]c(=O)nc-3n(C[C@H](O)[C@H](O)[C@H](O)COP(=O)(O)O)c2cc1C` [flavin mononucleotide]: the cryoEM structure result in assay [4] is “the catalytic histidine side chain is in a single conformation facing FMN”; in assay [5], “catalytic histidine can be modeled with two side chain orientations, one facing FMN”.
